{"source": "ChEMBL document CHEMBL3352039", "about": "“Semisynthesis of triptolide analogues: effect of B-ring substituents on cytotoxic activities” (Bioorg Med Chem Lett, 2014)", "key": {"[1]": {"system": "U-251", "assay": "Cytotoxicity against human U251 cells assessed as inhibition of cell proliferation by sulforhodamine B assay", "assay_type": "functional, cell-based"}, "[2]": {"assay": "Cytotoxicity against human PC3 cells assessed as inhibition of cell proliferation by sulforhodamine B assay", "assay_type": "functional, cell-based", "conditions": "PC-3"}}, "data": [{"smiles": "CC(C)[C@]12O[C@H]1[C@@H]1O[C@@]13[C@@]1(C)CCC4=C(COC4=O)[C@]1(O)C[C@@H]1O[C@@]13C2=O", "values": [{"measurement": "IC50", "setting": "[1]", "value": 1030, "unit": "nM"}, {"measurement": "IC50", "setting": "[2]", "value": 377, "unit": "nM"}]}, {"smiles": "CC(C)[C@]12O[C@H]1[C@@H]1O[C@]13[C@]1(O[C@H]1C[C@@]1(Br)C4=C(CC[C@]31C)C(=O)OC4)[C@@H]2O", "values": [{"measurement": "IC50", "setting": "[1]", "value": 796, "unit": "nM"}, {"measurement": "IC50", "setting": "[2]", "value": 333, "unit": "nM"}]}, {"smiles": "CC(C)[C@]12O[C@H]1[C@@H]1O[C@@]13[C@@]1(C)CCC4=C(COC4=O)[C@]1(Br)C[C@@H]1O[C@@]13C2=O", "values": [{"measurement": "IC50", "setting": "[1]", "value": 558, "unit": "nM"}, {"measurement": "IC50", "setting": "[2]", "value": 104, "unit": "nM"}]}, {"smiles": "CC(C)[C@]12O[C@H]1[C@@H]1O[C@@]13[C@@]1(C)CCC4=C(COC4=O)[C@]1(O)C[C@@H]1O[C@@]13[C@]21CO1", "values": [{"measurement": "IC50", "setting": "[1]", "value": 5470, "unit": "nM"}, {"measurement": "IC50", "setting": "[2]", "value": 2610, "unit": "nM"}]}, {"smiles": "CC(C)[C@]12O[C@H]1[C@@H]1O[C@@]13[C@@]1(C)CCC4=C(COC4=O)[C@]1(F)C[C@@H]1O[C@@]13C2=O", "values": [{"measurement": "IC50", "setting": "[1]", "value": 429, "unit": "nM"}, {"measurement": "IC50", "setting": "[2]", "value": 223, "unit": "nM"}]}, {"smiles": "CC(C)[C@]12O[C@H]1[C@@H]1O[C@]13[C@]1(O[C@H]1C[C@H]1C4=C(CC[C@@]13C)C(=O)OC4)[C@@H]2O", "note": "[TRIPTOLIDE]", "values": [{"measurement": "IC50", "setting": "[1]", "value": 33, "unit": "nM"}, {"measurement": "IC50", "setting": "[2]", "value": 20, "unit": "nM"}]}, {"smiles": "CC(C)[C@]12O[C@H]1[C@@H]1O[C@]13[C@@]1(O[C@@H]1C[C@H]1C4=C(CC[C@@]13C)C(=O)OC4)[C@@H]2O", "values": [{"measurement": "IC50", "setting": "[1]", "value": "> 10000", "unit": "nM"}, {"measurement": "IC50", "setting": "[2]", "value": "> 10000", "unit": "nM"}]}, {"smiles": "CC(C)[C@]12O[C@H]1[C@@H]1O[C@@]13[C@@]1(C)CCC4=C(COC4=O)[C@]1(Cl)C[C@@H]1O[C@@]13[C@]21CO1", "values": [{"measurement": "IC50", "setting": "[1]", "value": 925, "unit": "nM"}, {"measurement": "IC50", "setting": "[2]", "value": 871, "unit": "nM"}]}, {"smiles": "CC(C)[C@]12O[C@H]1[C@@H]1O[C@]13[C@]1(O[C@H]1[C@H](O)[C@@]1(O)C4=C(CC[C@]31C)C(=O)OC4)[C@H]2O", "values": [{"measurement": "IC50", "setting": "[1]", "value": "> 10000", "unit": "nM"}, {"measurement": "IC50", "setting": "[2]", "value": "> 10000", "unit": "nM"}]}, {"smiles": "CC(C)[C@]12O[C@H]1[C@@H]1O[C@@]13[C@@]1(C)CCC4=C(COC4=O)[C@@H]1C[C@@H]1O[C@@]13C2=O", "note": "[TRIPTONIDE]", "values": [{"measurement": "IC50", "setting": "[1]", "value": 31, "unit": "nM"}, {"measurement": "IC50", "setting": "[2]", "value": 26, "unit": "nM"}]}, {"smiles": "CC(C)[C@]12O[C@H]1[C@@H]1O[C@@]13[C@@]1(C)CCC4=C(COC4=O)[C@]1(Cl)C[C@@H]1O[C@@]13C2=O", "values": [{"measurement": "IC50", "setting": "[1]", "value": 170, "unit": "nM"}, {"measurement": "IC50", "setting": "[2]", "value": 85, "unit": "nM"}]}, {"smiles": "CC(C)[C@]12O[C@H]1[C@@H]1O[C@@]13[C@@]1(C)CCC4=C(COC4=O)[C@@]1(O)[C@@H](O)[C@@H]1O[C@@]13C2=O", "values": [{"measurement": "IC50", "setting": "[1]", "value": 9860, "unit": "nM"}, {"measurement": "IC50", "setting": "[2]", "value": 5040, "unit": "nM"}]}, {"smiles": "CC(C)[C@]12O[C@H]1[C@@H]1O[C@@]13[C@@]1(C)CCC4=C(COC4=O)[C@@]14O[C@H]4[C@@H]1O[C@@]13C2=O", "values": [{"measurement": "IC50", "setting": "[1]", "value": 197, "unit": "nM"}, {"measurement": "IC50", "setting": "[2]", "value": 4050, "unit": "nM"}]}, {"smiles": "CC(C)[C@]12O[C@H]1[C@@H]1O[C@]13[C@]1(O[C@H]1[C@H](O)[C@@]1(O)C4=C(CC[C@]31C)C(=O)OC4)[C@@H]2O", "values": [{"measurement": "IC50", "setting": "[1]", "value": 1580, "unit": "nM"}, {"measurement": "IC50", "setting": "[2]", "value": 589, "unit": "nM"}]}, {"smiles": "CC(C)[C@]12O[C@H]1[C@@H]1O[C@@]13[C@@]1(C)CCC4=C(COC4=O)[C@]1(O)[C@@H](O)[C@@H]1O[C@@]13C2=O", "values": [{"measurement": "IC50", "setting": "[1]", "value": 2970, "unit": "nM"}, {"measurement": "IC50", "setting": "[2]", "value": 2270, "unit": "nM"}]}, {"smiles": "CC(C)[C@]12O[C@H]1[C@@H]1O[C@]13[C@]1(O[C@H]1C[C@@]1(O)C4=C(CC[C@]31C)C(=O)OC4)[C@@H]2O", "values": [{"measurement": "IC50", "setting": "[1]", "value": 488, "unit": "nM"}, {"measurement": "IC50", "setting": "[2]", "value": 275, "unit": "nM"}]}, {"smiles": "CC(C)[C@]12O[C@H]1[C@@H]1O[C@@]13[C@@]1(C)CCC4=C(COC4=O)C1=C[C@@H]1O[C@@]13C2=O", "values": [{"measurement": "IC50", "setting": "[1]", "value": 1630, "unit": "nM"}, {"measurement": "IC50", "setting": "[2]", "value": 171, "unit": "nM"}]}, {"smiles": "CC(C)[C@]12O[C@H]1[C@@H]1O[C@]13C(=CC[C@H]1C4=C(CC[C@@]13C)C(=O)OC4)[C@@H]2O", "values": [{"measurement": "IC50", "setting": "[1]", "value": "> 10000", "unit": "nM"}, {"measurement": "IC50", "setting": "[2]", "value": "> 10000", "unit": "nM"}]}, {"smiles": "CC(C)[C@]12O[C@H]1[C@@H]1O[C@@]13[C@@]1(C)CCC4=C(COC4=O)[C@]1(Br)C[C@@H]1O[C@@]13[C@]21CO1", "values": [{"measurement": "IC50", "setting": "[1]", "value": 2040, "unit": "nM"}, {"measurement": "IC50", "setting": "[2]", "value": 893, "unit": "nM"}]}, {"smiles": "CC(C)[C@]12O[C@H]1[C@@H]1O[C@]13[C@]1(O[C@H]1C=C1C4=C(CC[C@@]13C)C(=O)OC4)[C@@H]2O", "values": [{"measurement": "IC50", "setting": "[1]", "value": 718, "unit": "nM"}, {"measurement": "IC50", "setting": "[2]", "value": 126, "unit": "nM"}]}, {"smiles": "CC(C)[C@]12O[C@H]1[C@@H]1O[C@]13[C@]1(O[C@H]1C=C1C4=C(CC[C@@]13C)C(=O)OC4)[C@H]2O", "values": [{"measurement": "IC50", "setting": "[1]", "value": 5040, "unit": "nM"}, {"measurement": "IC50", "setting": "[2]", "value": 3220, "unit": "nM"}]}]}
